Test results taken from patent publication US8912144B2, “Method for treating stroke via administration of NEP1-40 and inosine” (Children's Medical Center Corporation, priority 2003, dated 2014).

System: corticospinal neurons (CSNs/CSMNs)
Assay: Laser-capture microdissection and Illumina microarray gene expression in corticospinal neurons contralateral to stroke
Assay type: in vivo, rat
Method: In a separate group of animals (n=20), layer V pyramidal cells of the sensorimotor cortex were retrogradely labeled by injecting Alexa-Fluor-488-conjugated cholera toxin B subunit (CTB; 300 U/μl in sterile saline) into the cervical spinal cord. For this, animals were anesthetized with a combination of ketamine and Domitor (medetomidine) and a laminectomy was performed at the cervical level of the spinal cord (C2-C4). CTB was stereotaxically delivered into four sites lateral to the corticospinal tract. Injections (1.3 μl) were spaced 1 mm apart on the rostro-caudal axis, and were made 0.5 mm to the left and right of the midline. After allowing two weeks for transport of the tracer, we performed either sham surgery with no treatment (n=6) or stroke surgery combined with saline (n=3) or inosine (n=4) treatment as described above. Seven days later, animals were decapitated under transient gas anesthesia, brains were removed and rinsed in cold RPMI medium, and a tissue block containing the sensorimotor cortex was dissected and placed in OCT Tissue Tek Medium (Sakura Finetek USA Inc., CA) on dry ice within five minutes of death. Ten μm sections were cut onto precleaned Gold Seal RITE-ON glass slides (Gold Seal Prod-ucts, Portsmouth, N.H.), placed on dry ice, and rapidly stored at −80° C.
Slide-mounted sections were thawed and dehydrated in RNAse-free ethanol gradients and xylene. Retro-gradely labeled, fluorescent cortical pyramidal cells in the undamaged hemisphere were individually captured using the Arcturus VERITAS system. ≧500 cells were collected from each animal and stored in Arcturus extraction buffer at −80° C. Total RNA was extracted from cells using the Micro-to-Midi TotalRNA Purification System (Invitrogen, Carlsbad Calif.) and double-amplified using the TargetAmp 2-Round Aminoallyl-aRNA Amplification kit 1.0 (Epicentre, Madison, Wis.). Amplified RNA was checked for average fragment length using the Agilent RNA 6000 Nano LabChip kit (Agilent Technologies, Santa Clara, Calif.) and then biotinylated and hybridized (1 μg) on Illumina RatRef-12 Expression BeadChip arrays (Illumina, San Diego Calif.), querying the expression of >22,000 RefSeq-curated rat transcripts. Results were obtained from a total of 15 samples representing 6 untreated controls, 4 animals with stroke treated with saline and 5 animals with stroke treated with inosine. Slides were processed and scanned with Illumina BeadStation platform according to the manufacturer protocol.
Raw data was analyzed using Bioconductor packages (www.bioconductor.org, (Gentleman et al., 2004)). Low level quality-control analysis was performed using inter-array Pearson correlation and clustering based on variance. Two arrays (1 saline and 1 inosine-treated) were outliers and were excluded from the analysis. Data was normalized using quantile normalization, and analysis of differential expression was performed using a linear model fitting (LIMMA package, (Smyth, 2005). Differentially expressed genes were classified according to gene ontology using Bioconductor packages and online tools (DAVID, http://david.abcc.ncifcrf.gov/). Pathway analysis was carried out using Ingenuity Pathway Analysis (Ingenuity Systems, www.ingenuity.com).

Structure (SMILES): OC[C@H]1O[C@@H](n2cnc3c(O)ncnc32)[C@H](O)[C@@H]1O [inosine]
- Fold-Induction Stroke, ino vs. cntrl, Hbld2 (ILMN_57967): 0.54
- Signal Intensity, Hbld2 (ILMN_57967, inosine after stroke): 1095
- Fold-Induction Stroke, ino vs. cntrl, LOC298490 (ILMN_58032): 0.62
- Signal Intensity, LOC298490 (ILMN_58032, inosine after stroke): 1407
- Fold-induction CSMNs: Lcp1 (ILMN_58058, over and above inosine's effect of decreasing stroke-induced changes): 2.68 fold
- Fold-Induction Stroke, ino vs. cntrl, LOC290549 (ILMN_58092): 0.54
- Signal Intensity, LOC290549 (ILMN_58092, inosine after stroke): 1870
- Fold-Induction Stroke, ino vs. cntrl, Rhob (ILMN_58180): 0.52
- Signal Intensity, Rhob (ILMN_58180, inosine after stroke): 276
- Fold-Induction Stroke, ino vs. cntrl, Gdap2 (ILMN_58290): 0.58
- Signal Intensity, Gdap2 (ILMN_58290, inosine after stroke): 319
- Fold-Induction, complement cascade gene C1qa (ILMN_58496, LCM-captured CSMNs contralateral a stroke): 2.03 fold
- Fold-induction CSMNs: C1qa (ILMN_58496, over and above inosine's effect of decreasing stroke-induced changes): 1.84 fold
- Fold-Induction Stroke, ino vs. cntrl, Rab11a (ILMN_58550): 0.56
- Signal Intensity, Rab11a (ILMN_58550, inosine after stroke): 1039
- Fold-Induction Stroke, ino vs. cntrl, LOC499088 (ILMN_58730): 0.59
- Signal Intensity, LOC499088 (ILMN_58730, inosine after stroke): 1089
- Fold-Induction Stroke, ino vs. cntrl, Dars (ILMN_58816): 0.76
- Signal Intensity, Dars (ILMN_58816, inosine after stroke): 349
- Fold-Induction, complement cascade gene Adn ((P) adipsin) (ILMN_58846, LCM-captured CSMNs contralateral a stroke): 5.81 fold
- Fold-Induction Stroke, ino vs. cntrl, Emb (ILMN_58897): 0.77
- Signal Intensity, Emb (ILMN_58897, inosine after stroke): 425
- Fold-Induction Stroke, ino vs. cntrl, Kifap3 (ILMN_59040): 0.64
- Signal Intensity, Kifap3 (ILMN_59040, inosine after stroke): 270
- Fold-induction CSMNs: Npc2 (ILMN_59161, over and above inosine's effect of decreasing stroke-induced changes): 1.73 fold
- Fold-Induction Stroke, ino vs. cntrl, Plcb1 (ILMN_59359): 0.59
- Signal Intensity, Plcb1 (ILMN_59359, inosine after stroke): 512
- Fold-induction CSMNs: Emp3 (ILMN_59412, over and above inosine's effect of decreasing stroke-induced changes): 2.20 fold
- Fold-Induction Stroke, ino vs. cntrl, LOC291762 (ILMN_59483): 0.52
- Signal Intensity, LOC291762 (ILMN_59483, inosine after stroke): 673
- Fold-Induction Stroke, ino vs. cntrl, LOC315840 (ILMN_59546): 0.85
- Signal Intensity, LOC315840 (ILMN_59546, inosine after stroke): 3649
- Fold-Induction, complement cascade gene C4-2 (ILMN_59751, LCM-captured CSMNs contralateral a stroke): 2.15 fold
- Fold-induction CSMNs: Ppp1r14b (ILMN_59774, over and above inosine's effect of decreasing stroke-induced changes): 1.74 fold
- Fold-Induction Stroke, ino vs. cntrl, Bcas2 (ILMN_59789): 0.91
- Signal Intensity, Bcas2 (ILMN_59789, inosine after stroke): 1103
- Fold-Induction Stroke, ino vs. cntrl, D123 (ILMN_59956): 0.76
- Signal Intensity, D123 (ILMN_59956, inosine after stroke): 607
- Fold-Induction Stroke, ino vs. cntrl, LOC497728 (ILMN_59964): 0.56
- Signal Intensity, LOC497728 (ILMN_59964, inosine after stroke): 1366
- Fold-induction CSMNs: Cd68 (ILMN_60003, over and above inosine's effect of decreasing stroke-induced changes): 2.62 fold
- Fold-Induction Stroke, ino vs. cntrl, Tspan2 (ILMN_60033): 0.54
- Signal Intensity, Tspan2 (ILMN_60033, inosine after stroke): 1363
- Fold-induction CSMNs: Lgals3bp (ILMN_60037, over and above inosine's effect of decreasing stroke-induced changes): 2.60 fold
- Fold-Induction, complement cascade gene Serping1 (ILMN_60046, LCM-captured CSMNs contralateral a stroke): 2.20 fold
- Fold-induction CSMNs: Serping1 (ILMN_60046, over and above inosine's effect of decreasing stroke-induced changes): 2.93 fold
- Fold-Induction Stroke, ino vs. cntrl, Pgk1 (ILMN_60123): 0.65
- Signal Intensity, Pgk1 (ILMN_60123, inosine after stroke): 5869
- Fold-Induction Stroke, ino vs. cntrl, Ndufa8 (ILMN_60239): 0.57
- Signal Intensity, Ndufa8 (ILMN_60239, inosine after stroke): 572
- Fold-Induction Stroke, ino vs. cntrl, Kbtbd9 (ILMN_60252): 0.68
- Signal Intensity, Kbtbd9 (ILMN_60252, inosine after stroke): 1263
- Fold-Induction Stroke, ino vs. cntrl, LOC309016 (ILMN_60417): 0.68
- Signal Intensity, LOC309016 (ILMN_60417, inosine after stroke): 554
- Fold-Induction Stroke, ino vs. cntrl, Bckdhb (ILMN_60448): 0.61
- Signal Intensity, Bckdhb (ILMN_60448, inosine after stroke): 281
- Fold-Induction Stroke, ino vs. cntrl, Rbm18 (ILMN_60511): 0.62
- Signal Intensity, Rbm18 (ILMN_60511, inosine after stroke): 301
- Fold-Induction Stroke, ino vs. cntrl, LOC360618 (ILMN_60542): 0.69
- Signal Intensity, LOC360618 (ILMN_60542, inosine after stroke): 1021
- Fold-Induction Stroke, ino vs. cntrl, Mg87 (ILMN_60584): 0.80
- Signal Intensity, Mg87 (ILMN_60584, inosine after stroke): 1251
- Fold-Induction Stroke, ino vs. cntrl, Ndfip1 (ILMN_60653): 0.80
- Signal Intensity, Ndfip1 (ILMN_60653, inosine after stroke): 362
- Fold-induction CSMNs: Rhoc (ILMN_61063, over and above inosine's effect of decreasing stroke-induced changes): 2.02 fold
- Fold-Induction Stroke, ino vs. cntrl, Pja2 (ILMN_61213): 0.58
- Signal Intensity, Pja2 (ILMN_61213, inosine after stroke): 2360
- Fold-Induction Stroke, ino vs. cntrl, Khdrbs3 (ILMN_61216): 0.57
- Signal Intensity, Khdrbs3 (ILMN_61216, inosine after stroke): 2045
- Fold-Induction Stroke, ino vs. cntrl, Dlgap1 (ILMN_61367): 0.68
- Signal Intensity, Dlgap1 (ILMN_61367, inosine after stroke): 1249
- Fold-Induction, complement cascade gene C1qb (ILMN_61448, LCM-captured CSMNs contralateral a stroke): 1.84 fold
- Fold-Induction Stroke, ino vs. cntrl, LOC500629 (ILMN_61521): 0.59
